Read-outs that look alike come from different tables or passages of the source.
Columns and labels:
P. falciparum NF54 = experiment: IC50 speed assay; assay type: cell-based, Plasmodium falciparum; details: Plasmodium falciparum
Method: To assess the rapidity of growth inhibition induced by the steroid compounds, the so-called IC50 speed assay[16] was conducted for compound 1o on P. falciparum NF54 (Fig. 2a,b).

[1] = target: haem (FeIIIPPIX, π-π dimer); experiment: spectrophotometric titration of haematin π-π dimer; assay type: binding; details: absorption spectrophotometric titration, pH 7.5; read-out: Dissociation Constant KD of haematin-drug complex
haem = experiment: ESI-MS collision-induced dissociation of haem adducts; assay type: binding; details: 50 µM haem and 50 µM substrate
Method: Compound Molar Adduct DV50 Bottom Dissociation mass [Haem+S] (V) plateau Constant
Supplementary Table 7. ESI-MS-CID data (m/z, calculated DV50 = dissociation voltage at 50% and % bottom plateau) of the [haematin-drug]+ adducts and dissociation constants (KD, µM) of the haematin-drug complexes measured with absorption spectrophotometric titrations.
Conditions: 50 µM haem and 50 µM substrate in H2O/CH3CN (5/95) + 0.1% formic acid.
Stability responses of the haem substrate adduct were obtained via ESI-CID experiments.
Positive mode; fragmentor voltage from 20 V to 400 V with 20 V increments. […]
- 41/120 g), and complete dissolution was achieved using an ultrasonic bath. All solutions were protected from daylight to avoid any photochemical degradation. All the physiochemical measurements were carried out at 25.0(2) °C. […]
Electrospray mass spectrometric measurements stopping point
Electrospray mass spectra of the haem complexes were obtained with an Agilent Technologies 6120 quadrupole equipped with an electrospray (ESI) interface. For

[2] = system: P. falciparum (strain 3D7); details: cited from earlier work
P. falciparum strain Dd2 = system: P. falciparum strain Dd2; set-up: method as in PMID 24348249; details: chloroquine-resistant strain Dd2; cited from earlier work
[3] = system: Bacillus subtilis JMRC:STI:10880; experiment: agar diffusion inhibition zone test; assay type: cell-based; details: Bacillus subtilis; 1o, 2o 1,000 µg/ml in DMSO; ciprofloxacin 5 µg/ml; solvent DMSO 12P; read-out: inhibition zone diameter, Bacillus subtilis (B1)
Method: (§1) The following organisms were tested at the Hans Knöll Institute in Jena, for their susceptibility to the compounds 1o and 2o: Bacillus subtilis JMRC:STI:10880, Staphylococcus aureus JMRC:ST:10760, Escherichia coli JMRC:ST:33699, Pseudomonas aeruginosa JMRC:ST:33772, Pseudomonas aeruginosa JMRC:ST:337721, Staphylococcus aureus JMRC:ST:33793 (multi-resistant), Enterococcus faecalis JMRC:ST:33700 (Vancomycin-resistant), Mycobacterium vaccae JMRC:STI:10670, Sporobolomyces salmonicolor (Basidiomycetes yeast) JMRC:ST:35974, Candida albicans (Ascomycetes yeast) JMRC:STI:25000, Penicillium notatum JMRC:STI:50164.
(§2) The bacteria were propagated in Mueller Hinton Broth (Oxoid)[49]. Yeast was propagated in YPD (yeast extract peptone dextrose): 1% yeast extract, 10 g; 2% peptone, 20 g; 2% agar, 20 g; 2% dextrose (glucose), 20 g; Sigma-Y1375. All bacteria and yeast suspensions were freshly made. The cultures were incubated at 37 °C for 16 h. Afterwards, the bacteria concentration from each culture was determined, and 34 ml of nutrient agar was loaded with 10^7 cells. These cultures were stored at 6-8 °C and could be used for seven days for the preparation of test plates. 34 ml of nutrient agar was liquefied and inoculated with the calculated amount of inoculum bacteria suspension at 48–50 °C, a temperature suitable for vegetative forms of bacteria. The inoculated nutrient media (34 ml each) were immediately poured into the prepared test plates (3 mm layer). With a punching device, 12 holes per test plate were punched out. For inhibiting bacterial growth, ciprofloxacin was used as a reference substance. The test substances were dissolved in distilled water, and 5 μg ml^−1 and 50 μl was added to each bacterial culture. For inhibition of fungal growth, amphotericin B served as the reference substance. The test substances were diluted to 10 μg ml^−1 in DMSO/methanol; 50 μl was added to each culture.
(§3) Configuring the test plate; volumes/punched hole: 50 μl; test solutions/test plate: 1 × 50 μl reference substance. Test plates were cultivated for 18 h at 37 °C. Analysis: Reading the inhibition zones (IZ): As IZ, the zone in which no growth can be determined with the naked eye is measured; the tiniest colonies on the edge of the inhibition zone were therefore not taken into consideration. The diameter (φ) of the IZ is measured in mm. The analysis of IZ φ is carried out internationally with the help of statistic procedures, especially regression analysis. With each test approach, the reference substance was brought along as a control; if there were deviations from allowed IZ φ, the test was repeated.
(§4) The inhibition of bacterial growth was determined using bacterial cultures grown in Müller-Hinton Bouillon, which was configured at barely visible opacity with the McFarland Standard Nr. 0.5, which indicates a bacterial density of 10^8 ml^−1. This bacterial suspension was diluted with Müller-Hinton Bouillon using 2-fold dilution series in the agar diffusion test.
(§5) Analysis: The growth in the inhibition zones around the holes containing active substances is thereby compared with the growth in the growth control (no active substance). Bacterial growth was determined according to four measurements: p=presence of colonies in the inhibition zone, P=presence of many colonies in the inhibition zone, A=indication of inhibition, F=facilitation.

[4] = system: Enterococcus faecalis JMRC:ST:33700 (Vancomycin-resistant); experiment: agar diffusion inhibition zone test; assay type: cell-based; details: 1o, 2o 1,000 µg/ml in DMSO; ciprofloxacin 5 µg/ml; solvent DMSO 12P
Method: as §1, §2, §3, §4, §5

[5] = system: Mycobacterium vaccae JMRC:STI:10670; experiment: agar diffusion inhibition zone test; assay type: cell-based; details: Mycolicibacterium vaccae; 1o, 2o 1,000 µg/ml in DMSO; ciprofloxacin 5 µg/ml; solvent DMSO 13P; read-out: inhibition zone diameter, Mycobac. vaccae (M4)
Method: as §1, §2, §3, §4, §5

[6] = system: Pseudomonas aeruginosa JMRC:ST:33772; experiment: agar diffusion inhibition zone test; assay type: cell-based; details: Pseudomonas aeruginosa; 1o, 2o 1,000 µg/ml in DMSO; ciprofloxacin 5 µg/ml; solvent DMSO 13P; read-out: inhibition zone diameter, Pseudomonas aeruginosa JMRC:ST:33772 (B7)
Method: as §1, §2, §3, §4, §5

[7] = system: Staphylococcus aureus JMRC:ST:10760; experiment: agar diffusion inhibition zone test; assay type: cell-based; details: Staphylococcus aureus; 1o, 2o 1,000 µg/ml in DMSO; ciprofloxacin 5 µg/ml; solvent DMSO 12P; read-out: inhibition zone diameter, Staphylococcus aureus (B3)
Method: as §1, §2, §3, §4, §5

[8] = system: Staphylococcus aureus JMRC:ST:33793 (multi-resistant); experiment: agar diffusion inhibition zone test; assay type: cell-based; details: Staphylococcus aureus, MRSA; 1o, 2o 1,000 µg/ml in DMSO; ciprofloxacin 5 µg/ml; solvent DMSO 12P; read-out: inhibition zone diameter, MRSA Staph. aureus (R9)
Method: as §1, §2, §3, §4, §5

[9] = system: hGrx1-roGFP2 in P. falciparum 3D7; experiment: cytosolic glutathione redox sensor in parasites; assay type: cell-based, Plasmodium falciparum; details: 100 nM, 24 h
Method: To further study the mechanism of action of the steroid compounds and evaluate the potential involvement of redox stress, compound 1o was tested in cell culture on the chloroquine-sensitive P. falciparum 3D7 strain expressing the cytosolic glutathione redox sensor hGrx1-roGFP2 (Supplementary Note 2). […]
signals at 405/475 nm were calculated and plotted against time and/or concentration of compound 1o or redox active compounds. Data from three independent experiments were […]
100 µM for 4 h and 24 h incubations. Transfection of the Pf3D7 strain with the redox sensor was carried out, and the parasites were cultured as described under constant drug pressure with 5 nM WR99210 (Jacobus Pharmaceuticals, New Jersey, USA).45,46 P. falciparum trophozoites were enriched via magnet separation.47 Parasitemia was counted by using Giemsa-stained blood smears. The IC50 of compound 1o on P. falciparum 3D7 asexual blood stages was verified to be about 5 nM in an additional 72 h [3H] incorporation assay45 directly before the experiment. The effect of compound 1o on P. falciparum was investigated in 4 h and 24 h incubations. For 4 h experiments, trophozoite stage parasites (26-30 h post invasion) of 3D7[hGrx1-roGFP2] (6-8% parasitemia) were magnetically enriched (Miltenyi Biotec, Germany), counted by using the improved Neubauer hemocytometer (Brand GmbH, Germany), and returned to cell culture (at 0.5 x 10^6 trophozoites/µl) for at least 1 h to recover.
1.0 x 10^6 cells in 100 µl cell culture medium were placed into LoBind tubes (Eppendorf) for 4 h incubation experiments. The parasites were treated with compound 1o at 50 x, and 100 x IC and with mefloquine (MQ) as a standard antimalarial drug at 1 µM (IC = 8 nM)45 for 4 h […]
for 15 min at 37 °C. For 24 h experiments, a 5 ml culture (6-8% parasitemia) of ring stage parasites (6-10 h post invasion) was treated with compound 1o at 4 x, 10 x, 20 x IC50 and with 100 nM MQ. Prior to enrichment, cysteines were blocked with 2 mM NEM. For 4 h and 24 h experiments, cells were washed after incubation with pre-warmed Ringer’s solution […]
Hepes, 1 mM NaH2PO4, pH 7.4) and were seeded onto poly-L-lysine-coated µ-slides VI (Ibidi, Martinsried, Germany). A Leica confocal system TCS SP5 inverted microscope equipped with the objective HCX PL APO 63.0x1.30 GLYC 37 °C UV connected to a 37 °C temperature chamber was used. The argon laser power was set to 20%; scanning was performed at 400 Hz frequency and at a 512 × 512 pixel resolution. The smart gain and […]
smart offset were 950 V and -0.9%, respectively. With a sequential scan, we excited the sensor at 405 nm and at 488 nm and detected emissions at 500-550 nm. Laser intensity for both lines was adjusted to match the full dynamic range of the probe to the dynamic range of the detector (405 nm: 12%, 488 nm: 4%). Autofluorescence images were simultaneously taken at ex 405 nm / em 430-450 nm and individually defined together with the background for every image, but no fluorescence signal could be detected. All experiments included non- […]
and 10 mM DTT (2 min incubation), respectively, prior to blocking with NEM. Only parasites showing fluorescent signals at both 405 and 488 nm excitation and an intact host cell were chosen for analysis. Each experiment was carried out three times. At least 10 parasites were analyzed, resulting in at least 30 experimental values per incubation. The Leica LAS AF Lite software for fluorescence analysis was used. The 405/488 nm ratio was calculated. The obtained ratio values were normalized to the control ratio value, which was set to 100. The graphs were plotted using the GraphPad Prism 5 software (San Diego, CA, USA). One way-ANOVA test with 95% confidence intervals with the Dunnett’s Multiple Comparison Test was applied for statistical analysis of significance (*, p < 0.05; **, p < 0.01; ***, p < 0.001). […]
with 1 µM MQ. 24 h incubation (Supplementary Figure 8 panel B) with compound 1o resulted in a higher increase of the fluorescence ratio in a concentration-dependent manner. […]

[10] = same methods (72 h 3H-hypoxanthine incorporation assay), read-out: IC50 on 3D7

## CCN(CC)CCCC(C)Nc1ccnc2cc(Cl)ccc12 (stereo not drawn) [chloroquine]
P. falciparum NF54; NF54, 24 h, read-out: IC50 24 h
  IC50: 8.3 ± 2.1 nM
P. falciparum NF54; NF54, 48 h, read-out: IC50 48 h
  IC50: 7.5 ± 0.9 nM
P. falciparum NF54; NF54, 72 h, read-out: IC50 72 h
  IC50: 7.4 ± 1.1 nM
[1]
  Kd: 1300 nM
haem; ESI-CID, 20 V to 400 V
  DV50 (dissociation voltage at 50%) of haem adduct: 201 V
haem; fragmentor voltage 400 V
  Bottom plateau (adduct remaining at 400 V): 0%
[2]; [10]
  IC50: 8.6 nM
P. falciparum strain Dd2
  IC50: 90.2 nM

## O=C(O)c1cn(C2CC2)c2cc(N3CCNCC3)c(F)cc2c1=O [Ciprofloxacin, ciprofloxacin, reference compound]
[3]
  zone of inhibition at 5 µg/mL: 31 mm
[4]
  inhibition zone diameter, VRSA Enteroc. faecalis (R10): 16 mm
[5]
  zone of inhibition at 5 µg/mL: 21 mm
[6]
  zone of inhibition at 5 µg/mL: 27 mm
[7]
  zone of inhibition at 5 µg/mL: 19 mm
[8]
  zone of inhibition at 5 µg/mL: 0 mm

## OC(c1cc(C(F)(F)F)nc2c(C(F)(F)F)cccc12)C1CCCCN1 (stereo not drawn) [mefloquine, reference compound]
[9]
  change of 405/488 nm fluorescence ratio: 1.5 fold
[2]; read-out: IC50 of mefloquine
  IC50: 8 nM

## C[C@@H]1CC[C@H]2[C@@H](C)C(=O)O[C@@H]3O[C@@]4(C)CC[C@@H]1[C@]32OO4 [artemisinin]
[2]; [10]
  IC50: 17.3 nM
P. falciparum strain Dd2
  IC50: 20.4 nM

— PMC5321741, “Arylmethylamino steroids as antiparasitic agents” (Nature Communications, 2017)
